The numbers were not newly measured in patent US7479387B2, “Compositions and methods for the synthesis and subsequent modification of uridine-5′-diphosphosulfoquinovose (UDP-SQ)” (Michigan State University, priority 2000, dated 2009), which cites them from elsewhere.

For series [1], the system named is mammalian DNA polymerases. To be noted: background statement, Ohta et al. 1998.
The target in series [2] is T1, Human Immunodeficiency Virus Reverse Transcriptase 1 (HIV-RT1) (Human immunodeficiency virus type 1 group M subtype B, UniProt P03366).
T1 construct: Human Immunodeficiency Virus Reverse Transcriptase 1 (HIV-RT1)
Particulars: background statement, Ohta et al. 1998.

Series [3] concerns tumor promotion. Particulars: background statement, Shirahashi et al. 1993.

Take “6-sulfo-α-D-quinovosyl diacyglycerol [SQDG]”: the “inhibition of several mammalian DNA polymerases” value in series [1] is given as “potent inhibitor”. Moreover, the “inhibition of HIV-RT1” value in series [2] was “potent inhibitor”. For the same substance, in series [3], the anti-tumor promoting properties entry is reported as “anti-tumor promoting properties”.
